# Experimental data as given in patent publication US20090175845A1, “METHODS FOR IDENTIFYING COMPOUNDS THAT MODULATE PHB DOMAIN PROTEIN ACTIVITY AND COMPOSITIONS THEREOF” (THE TRUSTEES OF COLUMBIA UNIVERSITY IN THE CITY OF NEW YORK, priority 2005, published 2009).
# Columns and labels:
# [1] = system: mec-2 null worms expressing the mec-2(C140/174A) gene; assay: C. elegans gentle touch sensitivity on plates with defined sterols; format: in vivo; settings: sterol substituted for cholesterol in the growth medium, FIG. 8C
# Method: C. elegans experiments. C. elegans strains were cultured at 20° C., assayed for touch sensitivity, and prepared for immunofluorescence as described previously [Zhang et al. (2004) Curr. Biol. 14:1888-96; Goodman et al. (2002) Nature 415:1039-42]. Briefly, C. elegans strains were cultured at 20° C. as described in the art. Strains were grown for at least three consecutive generations without starvation before carrying out the experiments described herein. Gentle touch and harsh touch sensitivity were assayed in blind tests by stimulating with an eyebrow hair or prodding with a platinum wire, respectively, as described in the art. To quantify the response, the number of responses in about 30 animals to 10 touches delivered alternately near the head and tail was recorded. Whole-mount immunofluorescence microscopy was carried out using methods known in the art.
# Media for growth on limiting or no cholesterol or on other sterols were prepared from chloroform-extracted reagents as described by Matyash et al. [(2004) PLoS Biol. 2: e280].
# First, a version of MEC-2 with reduced cholesterol binding was generating by mutating the predicted palmitoylation sites of the protein. Briefly, HEK293T cells were transfected with wild type MEC-2 or MEC-2(C140/174A) and labeled with [^3H]palmitic acid or [^3H]photoaffinity cholesterol. Equal expression of proteins in the lysates was confirmed on Western blots. […] Because touch sensitivity of wild-type animals was not affected by this limited cholesterol depletion, the effects observed with the palmitoylation mutant cannot be attributed to indirect effects on neuronal growth or development. Test compounds that target palmitoylation sites in PHB domain proteins can be used to modulate activity of such proteins, for example, by reducing their activity.
# TRPC6 = molecular target: T1, TRPC6 (Homo sapiens, UniProt Q9Y210); assay: Oocyte electrophysiology, two-electrode voltage clamp; format: cell-based; settings: TRPC6-expressing Xenopus laevis oocytes, Ca2+ free bath solution, 10 μM
# T1 construct: expressed in transfected cells; host or cells: Xenopus laevis oocytes (cRNA injection)
# T1 sequence (Q9Y210 1-931): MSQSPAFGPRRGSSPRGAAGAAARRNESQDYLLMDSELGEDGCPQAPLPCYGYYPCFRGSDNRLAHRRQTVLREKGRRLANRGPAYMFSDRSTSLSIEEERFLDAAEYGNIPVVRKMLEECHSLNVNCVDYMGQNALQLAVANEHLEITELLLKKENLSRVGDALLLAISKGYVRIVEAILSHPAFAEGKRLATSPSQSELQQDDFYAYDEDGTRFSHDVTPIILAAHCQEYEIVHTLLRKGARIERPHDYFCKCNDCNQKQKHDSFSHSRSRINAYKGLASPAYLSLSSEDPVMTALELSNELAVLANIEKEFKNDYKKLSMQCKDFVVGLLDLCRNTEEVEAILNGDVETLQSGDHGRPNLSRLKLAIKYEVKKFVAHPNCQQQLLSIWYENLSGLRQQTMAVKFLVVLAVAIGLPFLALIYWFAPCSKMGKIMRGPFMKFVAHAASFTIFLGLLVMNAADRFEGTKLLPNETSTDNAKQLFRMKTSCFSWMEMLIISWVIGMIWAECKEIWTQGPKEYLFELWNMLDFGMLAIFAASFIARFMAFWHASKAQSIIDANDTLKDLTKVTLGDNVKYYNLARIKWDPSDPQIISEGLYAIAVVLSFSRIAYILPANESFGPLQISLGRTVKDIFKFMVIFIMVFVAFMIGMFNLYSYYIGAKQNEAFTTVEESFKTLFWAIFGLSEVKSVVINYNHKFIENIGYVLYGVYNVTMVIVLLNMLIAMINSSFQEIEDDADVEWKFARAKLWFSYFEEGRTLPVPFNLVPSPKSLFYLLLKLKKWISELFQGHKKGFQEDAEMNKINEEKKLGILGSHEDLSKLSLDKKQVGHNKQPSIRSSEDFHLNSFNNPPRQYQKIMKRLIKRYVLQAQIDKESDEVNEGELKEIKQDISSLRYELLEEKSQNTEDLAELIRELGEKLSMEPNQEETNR
# Method: Oocyte Electrophysiology. Xenopus laevis oocytes were isolated from adult frogs (Kähler, Hamburg, Germany), dispersed and defolliculated by a 45 minute treatment with collagenase (type A, Boehringer, Germany), and were rinsed and kept at 18° C. in ND96-buffer (in mmol/l): NaCl 96, KCI 2, CaCl2 1.8, MgCl2 1, HEPES 5, Na-pyruvate 2.5, pH 7.55), supplemented with theophylline (0.5 mmol/l) and gentamycin (5 mg/l).
# To prepare cRNAs for TRPC6, Podocin and Podocin-DPHB (Podocin-ΔPHB), cDNAs encoding TRPC6, Podocin and Podocin-DPHB were transcribed in vitro using the T7 promoter and polymerase (Promega, Madison, Wis.). After isolation from adult Xenopus laevis female frogs (Kähler, Hamburg, Germany), oocytes were dispersed and defolliculated by a 45 minute treatment with collagenase (type A, Boebringer, Germany). Subsequently, the oocytes were rinsed and kept at 18° C. in ND96-buffer (in mmol/l): NaCl 96, KCI 2, CaCI2 1.8, MgCI2 1, HEPES 5, Na-pyruvate 2.5, pH. […] Membrane currents were measured by voltage clamping of the oocytes (Warner oocyte clamp amplifier OC725C) in intervals from −60 to +40 mV, each 1 s. Conductances were calculated according to Ohm's law. Na^+ conductances were determined by replacing Na^+ by n-methyl-D-glucamine (GNMDG) in a Ca^2+ free bath solution, before and after stimulation with 10 μM dioctanoyl glycerol (Sigma, Germany). […]
inward Na+ current (TRPC6),Compound,rescue of reduced touch sensitivity [1]
–,CC(C)CCC[C@@H](C)[C@H]1CC[C@H]2C3=CC=C4C[C@@H](O)CC[C@]4(C)[C@H]3CC[C@]12C [7-dehydro cholesterol],could be rescued
further augmented,"CCCCCCCC/C=C\CCCCCCCC(=O)OC[C@H](CO)OC(C)=O [OAG, 1-oleoyl-2-acetyl-sn-glycerol]",–
–,CC(C)[C@@H](C)/C=C/[C@@H](C)[C@H]1CC[C@H]2C3=CC=C4C[C@@H](O)CC[C@]4(C)[C@H]3CC[C@]12C [ergosterol],could be rescued
–,CC(C)CCC[C@@H](C)[C@H]1CC[C@H]2C3=CC[C@H]4C[C@@H](O)CC[C@]4(C)[C@H]3CC[C@]12C [lathosterol],could be rescued
